Data published in patent US6887878B2, “KMST isoeugenol derivatives and pharmaceutical activity” (Ing-Jun Chen, priority 2003, dated 2005).
Like-named read-outs stand apart in the source and are kept apart here.

What was measured:
[1] = molecular target: T1, 5-HT1B (Rattus norvegicus, UniProt P28564); assay: [3H]GR125743 receptor binding in rat cortex; design: species or system Wistar rat
T1 construct: from tissue; host or cells: Wistar rat cortex membranes
Procedure: (§1) The homogenate was pressure filtered through muslin. Filtrate was centrifuged at 1000 g for 10 min. […] Protein content was determined by Bradford's method.

[2] = system: phenylephrine-induced contractions in rat thoracic aorta; assay: LPS-induced vascular hyporeactivity: phenylephrine-induced contractions in rat thoracic aorta; format: in vivo, Wistar rat
[3] = system: lipid peroxidation in rat brain homogenate; assay: lipid peroxidation initiated by Fe2+-ascorbic acid in rat brain homogenates (TBARS); format: biochemical; details: rat brain homogenates; read-out: IC50 inhibiting lipid peroxidation initiated by Fe2+-ascorbic acid
Procedure: Rat brain homogenate was made in 0.9% saline containing 10 mg tissue/ml. The rates of membrane lipid peroxidation were measured by the formation of thiobarbituric acid (TBA)-reactive substance (TBARS). Rat brain homogenates (1 ml) were incubated at 37° C. for 5 min with 10 μl of test compound or vehicle. […] After 30 min of incubation, the reaction was stopped by adding 0.1 ml of 0.2% BHT. TBA reagent was then added and the mixture was heated for 30 min in a boiling water bath. […] The amount of TBARS was quantified using the linear regression obtained from malondialdehyde (MDA) standards.

[4] = LPS-induced blood glucose changes; format: in vivo, rat; details: for LPS-induced early hyperglycemia: at 1 and 3 hours; for LPS-induced hypoglycemia: at 5 hours
Procedure: (§2) In brief, Wistar rats weighing 250-300 g were anesthetized with pentobarbital sodium (50 mg kg^−1, i.p.). Following tracheal cannulation, systemic arterial BP and HR were recorded from the femoral artery by a pressure transducer (model P10EZ; Spectramed, Oxnard, Calif., U.S.A.) connected to a recorder (GOULD, Valley View, Ohio, Model P50). Body temperature was maintained at 37° C. by an electric heating pad. A femoral vein was cannulated for intravenous injection of drugs and LPS (10 mg kg^−1).
(§3) Blood was collected from venous cannula, injected into ice-cold heparinized Eppendorf tubes and centrifuged at 1500 rpm for 10 min at 4° C. Plasma supernatant was stored at −70° C. until analyzed. Solid phase enzyme immunoassay that specifically detects murine IL-1β, IL-6, IFN-γ and TNF-α was used with a detection limit of >10 pg/ml (Endogen, U.S.A). Pre-treatment with KMST and other agents was performed 15 minutes before intravenous injection of LPS. Blood was collected from venous cannula. Blood glucose was measured with a glucose test strip (Glucotide, Bayer, U.S.A) at 1, 3 and 5 hours.

[5] = system: IL-1β, IL-6, IFN-γ and TNF-α; assay: LPS-induced plasma cytokine immunoreactivity; format: in vivo, rat; details: for LPS-induced production of IFN-γ: 1 hour after LPS administration; for LPS-induced elevations of IL-1β, IL-6, IFN-γ and TNF-α levels: 1 mg kg−1, i.v., pretreatment
Procedure: as §2, §3

[6] = molecular target: α2 receptors; assay: [3H]yohimbine receptor binding in rat cortex; design: species or system Wistar rat
Procedure: as §1

[7] = molecular target: α1 receptors; assay: [3H]prazosin receptor binding in rat cortex; design: species or system Wistar rat
Procedure: as §1

[8] = molecular target: T2, 5-HT1A (Rattus norvegicus, UniProt P19327); assay: [3H]WAY100635 receptor binding
T2 sequence (P19327 1-422): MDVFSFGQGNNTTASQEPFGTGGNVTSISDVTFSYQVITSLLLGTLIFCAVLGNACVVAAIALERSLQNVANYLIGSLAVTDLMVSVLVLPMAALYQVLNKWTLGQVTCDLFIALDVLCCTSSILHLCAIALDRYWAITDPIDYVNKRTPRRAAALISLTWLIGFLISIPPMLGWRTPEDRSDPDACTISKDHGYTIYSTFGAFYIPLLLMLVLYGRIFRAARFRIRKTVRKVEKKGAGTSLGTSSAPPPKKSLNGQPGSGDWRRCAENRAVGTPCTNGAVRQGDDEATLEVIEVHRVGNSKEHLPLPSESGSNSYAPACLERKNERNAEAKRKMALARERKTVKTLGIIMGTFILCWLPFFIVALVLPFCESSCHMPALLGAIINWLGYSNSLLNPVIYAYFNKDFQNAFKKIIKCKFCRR

[9] = molecular target: T3, β2 receptors (Rattus norvegicus, UniProt P10608); assay: [3H]CGP-12177 receptor binding in rat lung; design: species or system Wistar rat; details: [3H]CGP-12177, rat lung
T3 construct: from tissue; host or cells: Wistar rat lung membranes
T3 sequence (P10608 whole entry): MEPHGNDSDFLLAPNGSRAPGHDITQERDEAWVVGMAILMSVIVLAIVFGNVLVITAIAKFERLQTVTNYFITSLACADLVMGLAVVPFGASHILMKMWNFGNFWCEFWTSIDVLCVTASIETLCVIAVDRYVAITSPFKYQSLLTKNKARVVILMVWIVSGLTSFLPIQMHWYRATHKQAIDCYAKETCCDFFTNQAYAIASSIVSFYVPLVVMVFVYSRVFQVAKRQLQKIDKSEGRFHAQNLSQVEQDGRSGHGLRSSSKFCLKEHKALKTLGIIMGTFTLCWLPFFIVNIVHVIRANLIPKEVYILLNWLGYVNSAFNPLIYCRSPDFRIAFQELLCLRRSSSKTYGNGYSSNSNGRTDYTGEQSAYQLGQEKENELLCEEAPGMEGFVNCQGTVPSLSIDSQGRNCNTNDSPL
Procedure: as §1

[10] = system: epinephrine-induced human platelet aggregation; assay: epinephrine-induced human platelet aggregation; format: cell-based; details: epinephrine 5 μM, PRP
Procedure: (§4) Venous blood from human volunteer donors was collected in 10 ml Monovette containing 1 ml citrate solution (0.106M trisodium citrate; Sarstedt, Nümbrecht, Germany) and centrifuged (400 g, 10 min, 20° C.). […] After centrifugation (10 min, 2000 g, 20° C.), the platelet pellet was resuspended in wishing buffer (113 mM NaCl, 4 mM Na2HPO4, 24 mM NaH2PO4, 4 mM KCl, 0.2 mM EGTA(Ethylene glycol-bis-(2-aminoethyl ether) N,N,N′-tetraacetic acid), 0.1% (wt/vol) glucose, pH 6.0) and recentrifuged (10 min, 2000 g, 20° C.). The washed platelets were resuspended in incubation buffer (134 mM NaCl, 12 mM NaHCO3, 2.9 mM KCl, 0.34 mM NaH2PO4, 5 mM HEPES (N-(2-hydroxyethyl) piperazine-N′-(2-ethanesulfonic acid)), 5 mM glucose, pH7.4), cells were counted in a Sysmex hematology analyzer (Sysmex, CDA-500, Japan) and adjusted to a final concentration of 2×10^8 platelets/ml.
(§5) The aggregation of the platelets in platelet-rich plasma (PRP) was measured as a change in light absorbance by a Payton dual-channel aggregometer (NBS, Hema tracer, Japan). PRP (240 μL) was stirred (700 rpm) at 37° C. for 1 min, and 5 μL epinephrine (final concentration 5 μM), serotonin (final concentration 5 μM) was added. After which the rate of primary aggregation (1/min) and maximum aggregation (%) at 5 min were recorded. To study the effects of compounds on epinephrine or serotonin-induced aggregation, PRP was incubated with 5 μL of compounds at various concentrations for 1 min before epinephrine or serotonin was added. IC50 values given were calculated from the secondary aggregation data.

[11] = molecular target: T4, β1 receptors (Rattus norvegicus, UniProt P18090); assay: [3H]CGP-12177 receptor binding in rat ventricle; design: species or system Wistar rat; details: [3H]CGP-12177, rat ventricle
T4 construct: from tissue; host or cells: Wistar rat heart (ventricle) membranes
T4 sequence (P18090 whole entry): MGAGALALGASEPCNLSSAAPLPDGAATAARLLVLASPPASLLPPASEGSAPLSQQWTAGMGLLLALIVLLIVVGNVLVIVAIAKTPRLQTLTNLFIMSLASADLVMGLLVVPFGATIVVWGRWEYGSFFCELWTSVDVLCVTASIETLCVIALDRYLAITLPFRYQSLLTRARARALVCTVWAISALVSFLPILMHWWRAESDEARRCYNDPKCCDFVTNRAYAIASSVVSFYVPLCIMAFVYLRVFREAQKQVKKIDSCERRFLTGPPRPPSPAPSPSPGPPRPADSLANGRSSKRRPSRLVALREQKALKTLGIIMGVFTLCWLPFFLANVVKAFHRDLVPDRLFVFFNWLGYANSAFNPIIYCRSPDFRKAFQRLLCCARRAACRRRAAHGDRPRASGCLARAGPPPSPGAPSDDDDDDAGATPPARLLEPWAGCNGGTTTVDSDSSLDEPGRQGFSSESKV
Procedure: as §1

[12] = system: serotonin-induced human platelet aggregation; assay: serotonin-induced human platelet aggregation; format: cell-based
Procedure: as §4, §5

[13] = molecular target: 5-HT2A receptor (Rattus norvegicus, UniProt P14842); assay: [3H]ketanserin receptor binding in rat cortex; design: from tissue; host or cells: Wistar rat cortex membranes; species or system Wistar rat
Sequence of 5-HT2A receptor (P14842 whole entry): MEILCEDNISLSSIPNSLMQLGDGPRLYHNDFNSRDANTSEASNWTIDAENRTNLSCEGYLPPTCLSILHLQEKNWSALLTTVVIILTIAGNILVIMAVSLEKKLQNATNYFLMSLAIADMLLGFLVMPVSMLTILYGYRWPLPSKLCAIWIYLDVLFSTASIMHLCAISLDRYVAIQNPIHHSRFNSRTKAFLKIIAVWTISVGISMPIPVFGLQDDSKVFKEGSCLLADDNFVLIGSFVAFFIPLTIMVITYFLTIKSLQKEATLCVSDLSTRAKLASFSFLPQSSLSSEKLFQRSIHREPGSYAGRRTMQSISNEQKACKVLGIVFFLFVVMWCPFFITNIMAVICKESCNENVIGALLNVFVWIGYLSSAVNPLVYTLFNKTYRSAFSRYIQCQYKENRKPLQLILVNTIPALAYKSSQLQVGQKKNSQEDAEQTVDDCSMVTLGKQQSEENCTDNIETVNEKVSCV
Procedure: as §1

[14] = molecular target: M2; assay: M2 receptor binding; design: species or system guinea pig
[15] = system: α1-adrenergic receptor; assay: noradrenaline-induced contraction in isolated rat thoracic aorta (pA2); design: species or system Wistar rat; details: Schild plot, mean ± SEM of eight
Procedure: Clonidine, noradrenaline and serotonin (10^−8˜10^−4 M) were added to the bath to induce contractions after pretreatment with KMST for 15 min.

[16] = system: anesthetized rats; assay: LPS-induced hypotension; format: in vivo, Wistar rat; details: pretreatment, intravenous LPS
Procedure: as §2

[17] = system: anesthetized rats; assay: intra-cisternal injection and NTS microinjection, BP and HR; format: in vivo, rat; details: for BP and HR after intra-cisternal injection and NTS microinjection: central administration
Procedure: Intra-cisternal injections of KMST (0.3, 0.03 μmol), yohimbine [0.03 μmol), and clonidine (38 pmol), were performed in rats as described by Duan et al (1987). Briefly, rats weighing 250-300 g were anaesthetized with pentobarbital sodium (50 mg kg^−1, i.p.) and mounted in a David-Kopf stereotaxic instrument (Yeh J L. et al., Brain. Res. Bull., 30:641-648, 1993). The calvarium was exposed and a 1 mm diameter trephine hole was drilled 1.8 mm lateral to the coronary and 1.5 mm posterior to the sagittal sutures. A cannula (0.7 mm O.D.) connected to a Hamilton syringe (RN-705, 5051) by PE-50 was advanced 4.7 mm into the brain using the electrode carrier.
Rats were anesthetized and placed in a David-Kopf stereotaxic instrument. The cerebellum was exposed after removing the skin and occipital bone. The NTS coordinates were (reference to lambda) P 5-6 mm, L/R 0.5-1 mm, depth 6-7.5 mm (Wu et al., 1994). NTS injection sites were confirmed by decreasing BP and HR following micro-injection of 1% L-glutamate. […] Pre-treatment with clonidine was performed 15 min before administration of test agents. At the end of experiments, the animals were sacrificed. The brain was removed and sectioned for histological confirmation of the drug application site.

[18] = system: epinephrine-induced human platelet aggregation; details: Mustonen et al., 2000; read-out: estimated IC50 to inhibit epinephrine-induced platelet aggregation; cited from earlier work
[19] = agent given after LPS injection (1 hr), pD2 to phenylephrine
[20] = agent given before LPS injection (30 min), pD2 to phenylephrine
[21] = after LPS injection (1 hr), 15 mg kg-1
[22] = before LPS injection (30 min), 1 mg kg-1
[23] = before LPS injection (30 min), 15 mg kg-1
[24] = read-out: Ki 5-HT1A, [3H]WAY100635
[25] = serotonin 5 μM, PRP, read-out: IC50 serotonin-induced human platelet aggregation
[26] = [3H]GR125743 (5-HT1B/1D), rat cortex, read-out: Ki 5-HT1B

T1 sequence (P28564 whole entry): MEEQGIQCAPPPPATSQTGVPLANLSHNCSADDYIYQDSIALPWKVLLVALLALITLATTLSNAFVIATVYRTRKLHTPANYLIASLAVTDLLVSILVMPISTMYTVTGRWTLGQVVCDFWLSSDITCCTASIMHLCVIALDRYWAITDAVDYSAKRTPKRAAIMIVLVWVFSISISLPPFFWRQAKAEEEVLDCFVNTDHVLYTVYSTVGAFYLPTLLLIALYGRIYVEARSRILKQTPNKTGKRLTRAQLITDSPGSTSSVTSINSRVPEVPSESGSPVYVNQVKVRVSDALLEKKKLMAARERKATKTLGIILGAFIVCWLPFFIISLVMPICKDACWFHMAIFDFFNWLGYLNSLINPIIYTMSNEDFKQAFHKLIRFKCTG

CCCCCCCCCOc1ccc2[nH]cc(CCN)c2c1 [5-nonyloxytryptamine, reference compound]
Ki [1]: 5.81 nM

Cl.N=C(N)NN [Aminoguanidine, aminoguanidine HCl]
pD2 at 3rd hr [2, 19]: 6.48 ± 0.13
pD2 at 5th hr [2, 19]: 5.81 ± 0.14
pD2 at 3rd hr [2, 20]: 6.81 ± 0.17
pD2 at 5th hr [2, 20]: 5.44 ± 0.31
IC50 [3]: > 100000 nM
LPS-induced early hyperglycemia [4]: inhibited
LPS-induced hypoglycemia [4]: did not affect

O=C1O[C@H]([C@@H](O)CO)C(O)=C1O [Ascorbic acid]
LPS-induced production of IFN-γ [5]: insignificantly enhanced
pD2 at 3rd hr [2, 21]: 6.64 ± 0.16
pD2 at 5th hr [2, 21]: 5.21 ± 0.12
pD2 at 3rd hr [2, 22]: 7.07 ± 0.25
pD2 at 5th hr [2, 22]: 5.04 ± 0.28
pD2 at 3rd hr [2, 23]: 6.71 ± 0.13
pD2 at 5th hr [2, 23]: 5.11 ± 0.22
IC50 [3]: 7150 ± 140 nM
LPS-induced early hyperglycemia [4]: inhibited
LPS-induced hypoglycemia [4]: did not affect

CC(C)NCC(O)COc1ccc(CC(N)=O)cc1 (centres unmarked) [Atenolol]
Ki [6]: > 10000 nM
Ki [7]: > 10000 nM

CC=Cc1ccc(OCC(O)CN2CCN(c3ccc(Cl)cc3)CC2)c(OC)c1 (centres unmarked) [Compound 2]
Ki [8, 24]: > 10000 nM
Ki [9]: > 10000 nM
IC50 [10]: 3900 nM
Ki [11]: 106 nM
Ki [6]: 1970 nM
IC50 [12, 25]: 4.73 nM
Ki [1, 26]: 1090 nM
Ki [13]: 2.99 nM
Ki [7]: 47 nM
Ki [14]: > 10000 nM

CC=Cc1ccc(OCCCN2CCN(c3cccc(Cl)c3)CC2)c(OC)c1 [Compound 3]
Ki [8, 24]: > 10000 nM
Ki [9]: > 10000 nM
IC50 [10]: 4.38 nM
Ki [11]: 113 nM
Ki [6]: 9290 nM
IC50 [12, 25]: 530 nM
Ki [1, 26]: 770 nM
Ki [13]: 3.11 nM
Ki [7]: 142 nM
Ki [14]: > 10000 nM

NCCc1c[nH]c2ccc(O)cc12 [Compound 5-HT, 5-Hydroxytryptamine]
Ki [6]: > 10000 nM
Ki [7]: > 10000 nM

O=C(c1ccc(F)cc1)C1CCN(CCn2c(=O)[nH]c3ccccc3c2=O)CC1 [Ketanserin, reference compound]
Ki [8]: > 10000 nM
α1 pA2 value [15]: 7.74 ± 0.32
Ki [6]: 2270 nM
IC50 ([12]; Homo sapiens, Platelet, read-out: IC50 serotonin-induced platelet aggregation): 10 nM
Ki [1, 26]: > 10000 nM
Ki [7]: 15.8 nM

CC(CCc1ccccc1)NCC(O)c1ccc(O)c(C(N)=O)c1 (centres unmarked) [Labetalol, reference compound]
Ki [11]: 4.17 nM
Ki [7]: 52.5 nM

O=c1n(CCCN2CCN(c3cccc(Cl)c3)CC2)nc2ccccn12 [Trazodone]
LPS-induced elevations of IL-1β, IL-6, IFN-γ and TNF-α levels [5]: reduced only IL-1β and TNF-α
pD2 at 3rd hr [2, 19]: 6.01 ± 0.09
pD2 at 5th hr [2, 19]: 5.04 ± 0.11
pD2 at 3rd hr [2, 20]: 6.29 ± 0.21
pD2 at 5th hr [2, 20]: 3.99 ± 0.16
aortic hyporeactivity and second prolonged hypotensive reaction induced by LPS [16]: inhibited
BP and HR after intra-cisternal injection and NTS microinjection [17]: increased BP and HR

COC(=O)[C@@H]1[C@H]2C[C@H]3c4[nH]c5ccccc5c4CCN3C[C@@H]2CC[C@@H]1O [Yohimbine]
LPS-induced elevations of IL-1β, IL-6, IFN-γ and TNF-α levels [5]: reduced only IL-1β and TNF-α
LPS-induced production of IFN-γ [5]: insignificantly enhanced
pD2 at 3rd hr [2, 19]: 6.12 ± 0.14
pD2 at 5th hr [2, 19]: 5.13 ± 0.26
pD2 at 3rd hr [2, 20]: 6.73 ± 0.33
pD2 at 5th hr [2, 20]: 3.44 ± 0.22
IC50 [18]: 980 nM
IC50 [3]: 11100 ± 350 nM
aortic hyporeactivity and second prolonged hypotensive reaction induced by LPS [16]: inhibited
BP and HR after intra-cisternal injection and NTS microinjection [17]: increased BP and HR
clonidine-induced bradycardia ([17]; low dose (0.03 μmol)): did not inhibit
clonidine-induced hypotension ([17]; low dose (0.03 μmol)): reduced

Isoeugenodilol [reference compound]
Ki [9]: 53.7 nM
Ki [11]: 43.6 nM
Ki [6]: 9700 nM
Ki [13]: 1010 nM
Ki [7]: 38.9 nM

Isoeugenolol [reference compound]
Ki [9]: 6860 nM
Ki [11]: 209 nM
Ki [6]: > 10000 nM
Ki [13]: 585 nM
Ki [7]: > 10000 nM

Methsergide [reference compound]
Ki [8, 24]: > 10000 nM
Ki [6]: 2430 nM
Ki [1, 26]: > 10000 nM
Ki [7]: > 10000 nM
